Counter-ions that a name gives are not always drawn.

This assay deals with T1, human GPR119 (Homo sapiens, UniProt Q8TDV5).
T1 construct: expressed in transfected cells; host or cells: Flp-In-T-REx 293 (tetracycline-inducible)
T1 sequence (Q8TDV5 1-335): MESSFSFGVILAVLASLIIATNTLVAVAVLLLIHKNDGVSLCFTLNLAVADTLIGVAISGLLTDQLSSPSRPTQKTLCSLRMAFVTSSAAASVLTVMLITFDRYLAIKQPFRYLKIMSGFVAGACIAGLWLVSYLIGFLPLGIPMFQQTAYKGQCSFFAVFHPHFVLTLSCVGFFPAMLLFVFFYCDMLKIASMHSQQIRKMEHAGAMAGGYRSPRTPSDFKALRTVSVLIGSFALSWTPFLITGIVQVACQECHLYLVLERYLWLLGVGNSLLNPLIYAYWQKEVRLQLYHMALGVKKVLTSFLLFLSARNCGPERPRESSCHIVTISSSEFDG
Kind of assay: Human Tet-inducible cAMP assay. It is filed as cell-based. The conditions noted are these: Flp-In-T-REx 293 tetracycline inducible cells expressing GPR119; cAMP by Hit Hunter cAMP kit; 1 hour at 37° C.; read-out: hGPR119 EC50. How it is done:
The in vitro modulation of recombinant human GPR119 was determined as follows.
Human Tet-Inducible cAMP Assay
Cell lines expressing GPR119 are generated using the Flp-In-T-REx 293 tetracycline inducible gene expression system are cultured in culture medium comprising the following components: DMEM#11965, 10% FBS, 2 mM L-glutamine, 200 ug/ml Hygromycin B, and 15 ug/ml blasticidin.
For cAMP assays, cells are plated on 96 well plates (e.g., BD Falcon: REF 353948, black side, clear bottom, TC surface) at a density of about 4.5×10^4 cells per well in growth medium containing 1.0 ug/ml tetracycline (1.0 mg/ml stock). The cells are then incubated for 48 hours at 37° C.
Following the incubation, the growth medium is removed from the wells and the wells rinsed (once) with the assay buffer included in the Hit Hunter cAMP kit (100 μl/well). Following the wash, 20 μl of assay buffer is added to each well, followed by addition of 10 μl of a 3× concentration compound working solution. The solution is then mixed. The final concentration range of compound is from about 10^−5M to about 10^−11M. The reagents are then incubated at 37° C. at 5% CO2 for 1 hour.
The manufacturer's protocol may be followed for cAMP determination. The Hit Hunter cAMP kit protocol is outlined for the HIT-T15 cAMP assays described above.
Compounds of the present invention were tested in the Human Tet-inducible cAMP assay described immediately above and the results shown in Table 1 below were obtained.
Broadly, the EC50 is the concentration needed to bring the measured effect to its halfway point. As for `COc1cccc(-n2ccc(OC3CCN(C(=O)OC(C)C)CC3)cc2=O)c1` [Example 12, isopropyl 4-(1-(3-methoxyphenyl)-2-oxo-1,2-dihydropyridin-4-yloxy)piperidine-1-carboxylate], the concentration for a half-maximal effect (EC50) was 3490 nM. As for `CC(C)OC(=O)N1[C@@H]2CC[C@@H]1CC(Oc1ccn(-c3ccc(S(C)(=O)=O)cc3)c(=O)c1)C2` (stereo partly drawn) [Example 27, (3-endo)-isopropyl 3-(1-(4-(methylsulfonyl)phenyl)-2-oxo-1,2-dihydropyridin-4-yloxy)-8-azabicyclo[3.2.1]octane-8-carboxylate], the figure is 3500 nM. The result for `CS(=O)(=O)c1ccc(-n2ccc(OC3CCN(c4nc5ccccc5o4)CC3)cc2=O)cc1` [Example 51, 4-(1-(benzo[d]oxazol-2-yl)piperidin-4-yloxy)-1-(4-(methylsulfonyl)phenyl)pyridin-2(1H)-one] reads 314 nM. The result for `CS(=O)(=O)c1ccc(-n2ccc(OC3CCN(C(=O)CCc4ccccc4)CC3)cc2=O)cc1` [Example 74, 1-(4-(methylsulfonyl)phenyl)-4-(1-(3-phenylpropanoyl)piperidin-4-yloxy)pyridin-2(1H)-one] reads 275 nM; that for `CS(=O)(=O)c1ccc(-n2ccc(OC3CCN(C(=O)c4cnc5ccccc5n4)CC3)cc2=O)cc1` [Example 78, 1-(4-(methylsulfonyl)phenyl)-4-(1-(quinoxaline-2-carbonyl)piperidin-4-yloxy)pyridin-2(1H)-one], 303 nM; that for `CS(=O)(=O)c1ccc(-n2ccc(OC3CCN(S(=O)(=O)CC(F)(F)F)CC3)cc2=O)cc1` [Example 82, 1-(4-(methylsulfonyl)phenyl)-4-(1-(2,2,2-trifluoroethylsulfonyl)piperidin-4-yloxy)pyridin-2(1H)-one], 4030 nM. For `CS(=O)(=O)c1ccc(-n2ccc(OC3CCN(S(C)(=O)=O)CC3)cc2=O)cc1` [Example 83, 1-(4-(methylsulfonyl)phenyl)-4-(1-(methylsulfonyl)piperidin-4-yloxy)pyridin-2(1H)-one], the EC50 is 4340 nM. `CS(=O)(=O)c1ccc(-n2ccc(OC3CCN(S(=O)(=O)C4CC4)CC3)cc2=O)cc1` [Example 84, 4-(1-(cyclopropylsulfonyl)piperidin-4-yloxy)-1-(4-(methylsulfonyl)phenyl)pyridin-2(1H)-one]: the EC50 turned out to be 3270 nM. The result for `CS(=O)(=O)c1ccc(-n2ccc(OC3CCN(S(=O)(=O)c4ccccn4)CC3)cc2=O)cc1` [Example 86, 1-(4-(methylsulfonyl)phenyl)-4-(1-(pyridin-2-ylsulfonyl)piperidin-4-yloxy)pyridin-2(1H)-one] reads 3520 nM. As for `CCCOC(=O)N1CCC(Oc2ccn(-c3ccc(S(C)(=O)=O)cc3)c(=O)c2)CC1` [Example 91, propyl 4-(1-(4-(methylsulfonyl)phenyl)-2-oxo-1,2-dihydropyridin-4-yloxy)piperidine-1-carboxylate], the figure is 304 nM; as for `Cc1cnc(N2CCC(Oc3ccn(-c4ccc(S(C)(=O)=O)cc4)c(=O)c3)CC2)nc1` [Example 108, 4-(1-(5-methylpyrimidin-2-yl)piperidin-4-yloxy)-1-(4-(methylsulfonyl)phenyl)pyridin-2(1H)-one], 261 nM. As for `CCOc1ccc(OC(=O)N2CCC(Oc3ccn(-c4ccc(S(C)(=O)=O)cc4)c(=O)c3)CC2)cc1` [Example 125, 4-ethoxyphenyl 4-(1-(4-(methylsulfonyl)phenyl)-2-oxo-1,2-dihydropyridin-4-yloxy)piperidine-1-carboxylate], the figure is 293 nM; as for `CCc1cnc(N2CCC(Oc3ccn(-c4cccnc4)c(=O)c3)CC2)nc1` [Example 133, 4-(1-(5-ethylpyrimidin-2-yl)piperidin-4-yloxy)-1-(pyridin-3-yl)pyridin-2(1H)-one], 250 nM; as for `Cc1cc(Br)ccc1OC(=O)N1CCC(Oc2ccn(-c3ccc(S(C)(=O)=O)cc3)c(=O)c2)CC1` [Example 143, 4-bromo-2-methylphenyl 4-(1-(4-(methylsulfonyl)phenyl)-2-oxo-1,2-dihydropyridin-4-yloxy)piperidine-1-carboxylate], 274 nM. `CCCc1ccc(OC(=O)N2CCC(Oc3ccn(-c4ccc(S(C)(=O)=O)cc4)c(=O)c3)CC2)cn1` [Example 153, 6-propylpyridin-3-yl 4-(1-(4-(methylsulfonyl)phenyl)-2-oxo-1,2-dihydropyridin-4-yloxy)piperidine-1-carboxylate, TFA salt]: the half-maximal effective concentration (EC50) worked out at 273 nM. `Cc1cc(OC2CCN(c3ncc(C4CC4)cn3)CC2)cc(=O)n1-c1ccc(S(C)(=O)=O)cc1` [Example 162, 4-(1-(5-cyclopropylpyrimidin-2-yl)piperidin-4-yloxy)-6-methyl-1-(4-(methylsulfonyl)phenyl)pyridin-2(1H)-one]: the EC50 was determined as 5000 nM.

On to `CCCc1cnc(N2CCC(Oc3cc(C)n(-c4ccc(S(C)(=O)=O)cc4)c(=O)c3)CC2)nc1` [Example 165, 6-methyl-1-(4-(methylsulfonyl)phenyl)-4-(1-(5-propylpyrimidin-2-yl)piperidin-4-yloxy)pyridin-2(1H)-one], for which the concentration giving a half-maximal response (EC50) is 5000 nM. For the compound `CCCc1cnc(N2CCC(Oc3ccn(-c4ccc(S(C)(=O)=O)c(F)c4)c(=O)c3)CC2)nc1` [Example 175, 1-(3-fluoro-4-(methylsulfonyl)phenyl)-4-(1-(5-propylpyrimidin-2-yl)piperidin-4-yloxy)pyridin-2(1H)-one], the EC50 was found to be 8 nM. The result for `CCCc1cnc(N2CCC(Oc3ccn(-c4ccc(C#N)cc4F)c(=O)c3)CC2)nc1` [Example 177, 3-fluoro-4-(2-oxo-4-(1-(5-propylpyrimidin-2-yl)piperidin-4-yloxy)pyridin-1(2H)-yl)benzonitrile, TFA salt] reads 8 nM; that for `CCCc1cnc(N2CCC(Oc3ccn(-c4ccc(S(C)(=O)=O)cc4C)c(=O)c3)CC2)nc1` [Example 178, 1-(2-methyl-4-(methylsulfonyl)phenyl)-4-(1-(5-propylpyrimidin-2-yl)piperidin-4-yloxy)pyridin-2(1H)-one], 265 nM; that for `CCCc1cnc(N2CCC(Oc3ccn(-c4ccc(C(N)=O)cc4F)c(=O)c3)CC2)nc1` [Example 179, 3-fluoro-4-(2-oxo-4-(1-(5-propylpyrimidin-2-yl)piperidin-4-yloxy)pyridin-1(2H)-yl)benzamide, TFA salt], 276 nM. The result for `CC(C)OC(=O)N1CCC(Oc2ccn(-c3ccc(S(C)(=O)=O)nc3)c(=O)c2)CC1` [Example 189, isopropyl 4-(1-(6-(methylsulfonyl)pyridin-3-yl)-2-oxo-1,2-dihydropyridin-4-yloxy)piperidine-1-carboxylate] reads 7140 nM. As to `CC(C)OC(=O)N1CCC(Oc2ccn(-c3cncnc3)c(=O)c2)CC1` [Example 191, isopropyl 4-(2-oxo-1-(pyrimidin-5-yl)-1,2-dihydropyridin-4-yloxy)piperidine-1-carboxylate], the EC50 is 5090 nM. As for `CCCc1cnc(N2CCC(Oc3ccn(-c4cncnc4)c(=O)c3)CC2)nc1` [Example 192, 4-(1-(5-propylpyrimidin-2-yl)piperidin-4-yloxy)-1-(pyrimidin-5-yl)pyridin-2(1H)-one], the figure is 241 nM; as for `CCCc1cnc(N2CCC(Oc3cc(=O)n(-c4ccc(S(C)(=O)=O)cc4)cc3Cl)CC2)nc1` [Example 194, 5-chloro-1-(4-(methylsulfonyl)phenyl)-4-(1-(5-propylpyrimidin-2-yl)piperidin-4-yloxy)pyridin-2(1H)-one, TFA salt], 5 nM; as for `CCCc1cnc(N2CCC(Oc3ccn(-c4ccc(C#N)c(F)c4)c(=O)c3)CC2)nc1` [Example 199, 2-fluoro-4-(2-oxo-4-(1-(5-propylpyrimidin-2-yl)piperidin-4-yloxy)pyridin-1(2H)-yl)benzonitrile], 7 nM.

`CCCc1cnc(N2CCC(Oc3ccn(-c4ccc(S(C)(=O)=O)nc4C)c(=O)c3)CC2)nc1` [Example 206, 1-(2-methyl-6-(methylsulfonyl)pyridin-3-yl)-4-(1-(5-propylpyrimidin-2-yl)piperidin-4-yloxy)pyridin-2(1H)-one, TFA salt]: the EC50 worked out at 293 nM. The result for `Cc1nc(S(C)(=O)=O)ccc1-n1ccc(OC2CCN(C(=O)OC(C)C)CC2)cc1=O` [Example 207, isopropyl 4-(1-(2-methyl-6-(methylsulfonyl)pyridin-3-yl)-2-oxo-1,2-dihydropyridin-4-yloxy)piperidine-1-carboxylate, TFA salt] reads 7070 nM.

The values are drawn from patent US8003796B2, “Pyridone GPR119 G protein-coupled receptor agonists” (Bristol-Myers Squibb Company, priority 2007, dated 2011).
